Data taken from ChEMBL document CHEMBL1782045, “Discovery, synthesis, and investigation of the antitumor activity of novel piperazinylpyrimidine derivatives” (Eur J Med Chem, 2011).

Columns and labels:
SK-MEL-28 = assay: Cytotoxicity against human SK-MEL-28 cells after 48 hrs by sulforhodamine B assay; assay type: cell-based; details: sk-mel-28, 48 h
UACC-257 = assay: Cytotoxicity against human UACC257 cells after 48 hrs by sulforhodamine B assay; assay type: cell-based; details: uacc-257, 48 h
UACC-62 [1] = assay: Cytotoxicity against human UACC62 cells after 48 hrs by sulforhodamine B assay; assay type: cell-based; details: uacc-62, 48 h
IGROV-1 = assay: Cytotoxicity against human IGROV1 cells after 48 hrs by sulforhodamine B assay; assay type: cell-based; details: igrov-1, 48 h
OVCAR-8 = assay: Cytotoxicity against human OVCAR8 cells after 48 hrs by sulforhodamine B assay; assay type: cell-based; details: ovcar-8, 48 h
ACHN [2] = assay: Cytotoxicity against human ACHN cells after 48 hrs by sulforhodamine B assay; assay type: cell-based
UO-31 = assay: Cytotoxicity against human UO31 cells after 48 hrs by sulforhodamine B assay; assay type: cell-based; details: uo-31, 48 h
K562 = assay: Growth inhibition of human K562 cells after 48 hrs by sulforhodamine B assay; assay type: functional; details: K562, 48 h
PC-3 = assay: Cytotoxicity against human PC3 cells after 48 hrs by sulforhodamine B assay; assay type: cell-based; details: pc-3, 48 h
DU-145 = assay: Cytotoxicity against human DU145 cells after 48 hrs by sulforhodamine B assay; assay type: cell-based; details: du-145, 48 h
MDA-MB-231 = assay: Cytotoxicity against human MDA-MB-231 cells after 48 hrs by sulforhodamine B assay; assay type: cell-based; details: mda-mb-231, 48 h
[3] = test system: Tyrosine-protein kinase ABL1 (Homo sapiens), P00519 [F317L]; assay: Binding affinity to human phosphorylated ABL1 F317L mutant at 10 uM incubated for 1 hr by kinase binding assay relative to untreated control
[4] = test system: Serine/threonine-protein kinase B-raf (Homo sapiens), P15056 [V600E]; assay: Binding affinity to human BRAF V600E mutant at 10 uM incubated for 1 hr by kinase binding assay relative to untreated control
[5] = molecular target: Casein kinase I isoform epsilon (Homo sapiens) (UniProt P49674); assay: Binding affinity to human CSNK1E at 10 uM incubated for 1 hr by kinase binding assay relative to untreated control
[6] = molecular target: Casein kinase I isoform gamma-2 (Homo sapiens) (UniProt P78368); assay: Binding affinity to human CSNK1G2 at 10 uM incubated for 1 hr by kinase binding assay relative to untreated control
[7] = molecular target: Epithelial discoidin domain-containing receptor 1 (Homo sapiens) (UniProt Q08345); assay: Binding affinity to human DDR1 at 10 uM incubated for 1 hr by kinase binding assay relative to untreated control
NCI-H522 = assay: Growth inhibition of human NCI-H522 cells after 48 hrs by sulforhodamine B assay; assay type: functional; details: NCI-H522, 48 h
HCT-116 = assay: Growth inhibition of human HCT116 cells after 48 hrs by sulforhodamine B assay; assay type: functional; details: HCT-116, 48 h
SNB-19 [8] = assay: Growth inhibition of human SNB19 cells after 48 hrs by sulforhodamine B assay; assay type: functional; details: SNB-19, 48 h
U-251 [9] = assay: Growth inhibition of human U251 cells after 48 hrs by sulforhodamine B assay; assay type: functional; details: U-251, 48 h
SK-MEL-2 = assay: Growth inhibition of human SK-MEL-2 cells after 48 hrs by sulforhodamine B assay; assay type: functional; details: SK-MEL-2, 48 h
UACC-62 [10] = assay: Growth inhibition of human UACC62 cells after 48 hrs by sulforhodamine B assay; assay type: functional; details: UACC-62, 48 h
OVCAR-3 = assay: Growth inhibition of human OVCAR3 cells after 48 hrs by sulforhodamine B assay; assay type: functional; details: OVCAR-3, 48 h
786-0 = assay: Growth inhibition of human 786-0 cells after 48 hrs by sulforhodamine B assay; assay type: functional; details: 786-0, 48 h
A498 = assay: Growth inhibition of human A498 cells after 48 hrs by sulforhodamine B assay; assay type: functional; details: A498, 48 h
[11] = test system: Mast/stem cell growth factor receptor Kit (Homo sapiens), P10721 [D816H]; assay: Binding affinity to human KIT D816H mutant at 10 uM incubated for 1 hr by kinase binding assay relative to untreated control
[12] = molecular target: T1, Receptor-interacting serine/threonine-protein kinase 1 (Homo sapiens) (UniProt Q13546); assay: Binding affinity to human RIPK1 at 10 uM incubated for 1 hr by kinase binding assay relative to untreated control
T1 sequence (whole entry): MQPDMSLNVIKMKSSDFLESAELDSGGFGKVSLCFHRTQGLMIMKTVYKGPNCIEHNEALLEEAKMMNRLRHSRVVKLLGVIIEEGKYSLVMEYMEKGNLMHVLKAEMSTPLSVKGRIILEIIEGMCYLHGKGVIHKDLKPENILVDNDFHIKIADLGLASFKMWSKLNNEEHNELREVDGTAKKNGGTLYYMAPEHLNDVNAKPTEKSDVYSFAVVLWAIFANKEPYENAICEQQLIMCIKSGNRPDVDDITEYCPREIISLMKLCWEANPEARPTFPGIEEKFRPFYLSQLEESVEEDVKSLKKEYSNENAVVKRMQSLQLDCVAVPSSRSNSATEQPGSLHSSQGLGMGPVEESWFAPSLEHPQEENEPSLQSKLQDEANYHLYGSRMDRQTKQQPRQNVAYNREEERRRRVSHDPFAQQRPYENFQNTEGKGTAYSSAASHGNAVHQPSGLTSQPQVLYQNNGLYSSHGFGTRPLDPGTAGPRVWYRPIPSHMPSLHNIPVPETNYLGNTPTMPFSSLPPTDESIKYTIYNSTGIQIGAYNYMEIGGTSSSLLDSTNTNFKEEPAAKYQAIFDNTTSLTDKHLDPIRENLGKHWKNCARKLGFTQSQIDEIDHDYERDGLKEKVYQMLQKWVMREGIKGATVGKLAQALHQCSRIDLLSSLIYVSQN

ACHN [13] = assay: Growth inhibition of human ACHN cells after 48 hrs by sulforhodamine B assay; assay type: functional
RXF 393 = assay: Growth inhibition of human RXF393 cells after 48 hrs by sulforhodamine B assay; assay type: functional; details: RXF 393, 48 h
SN12C = assay: Growth inhibition of human SN12C cells after 48 hrs by sulforhodamine B assay; assay type: functional
RPMI-8226 = assay: Cytotoxicity against human RPMI8226 cells after 48 hrs by sulforhodamine B assay; assay type: cell-based; details: rpmi-8226, 48 h
A549 = assay: Cytotoxicity against human A549 cells after 48 hrs by sulforhodamine B assay; assay type: cell-based; details: a549, 48 h
EKVX = assay: Cytotoxicity against human EKVX cells after 48 hrs by sulforhodamine B assay; assay type: cell-based
[14] = molecular target: Casein kinase I isoform delta (Homo sapiens) (UniProt P48730); assay: Inhibition of human CSNK1D using gamma-33P-ATP as substrate assessed as enzyme functional activity at 1 uM by scintillation counting relative to untreated control; design: scale not given: the % may be the effect or the level left
HCT-15 = assay: Cytotoxicity against human HCT15 cells after 48 hrs by sulforhodamine B assay; assay type: cell-based; details: hct-15, 48 h
SNB-19 [15] = assay: Cytotoxicity against human SNB19 cells after 48 hrs by sulforhodamine B assay; assay type: cell-based; details: snb-19, 48 h
U-251 [16] = assay: Cytotoxicity against human U251 cells after 48 hrs by sulforhodamine B assay; assay type: cell-based; details: u-251, 48 h

Casein kinase I isoform delta (Homo sapiens), sequence (P48730 whole entry, looked up, canonical isoform): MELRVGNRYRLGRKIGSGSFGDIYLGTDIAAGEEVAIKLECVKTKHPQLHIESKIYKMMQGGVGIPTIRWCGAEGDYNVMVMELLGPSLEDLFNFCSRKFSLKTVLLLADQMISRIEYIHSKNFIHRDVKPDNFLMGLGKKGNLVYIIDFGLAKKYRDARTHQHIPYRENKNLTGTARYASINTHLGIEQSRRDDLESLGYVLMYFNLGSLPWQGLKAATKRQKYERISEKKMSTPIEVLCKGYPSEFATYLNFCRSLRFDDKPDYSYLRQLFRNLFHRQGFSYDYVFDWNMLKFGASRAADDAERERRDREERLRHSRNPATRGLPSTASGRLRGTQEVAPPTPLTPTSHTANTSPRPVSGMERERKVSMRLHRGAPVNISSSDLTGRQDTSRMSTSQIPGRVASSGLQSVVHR
Serine/threonine-protein kinase B-raf (Homo sapiens), P15056 [V600E], sequence (P15056 whole entry V600E, canonical isoform): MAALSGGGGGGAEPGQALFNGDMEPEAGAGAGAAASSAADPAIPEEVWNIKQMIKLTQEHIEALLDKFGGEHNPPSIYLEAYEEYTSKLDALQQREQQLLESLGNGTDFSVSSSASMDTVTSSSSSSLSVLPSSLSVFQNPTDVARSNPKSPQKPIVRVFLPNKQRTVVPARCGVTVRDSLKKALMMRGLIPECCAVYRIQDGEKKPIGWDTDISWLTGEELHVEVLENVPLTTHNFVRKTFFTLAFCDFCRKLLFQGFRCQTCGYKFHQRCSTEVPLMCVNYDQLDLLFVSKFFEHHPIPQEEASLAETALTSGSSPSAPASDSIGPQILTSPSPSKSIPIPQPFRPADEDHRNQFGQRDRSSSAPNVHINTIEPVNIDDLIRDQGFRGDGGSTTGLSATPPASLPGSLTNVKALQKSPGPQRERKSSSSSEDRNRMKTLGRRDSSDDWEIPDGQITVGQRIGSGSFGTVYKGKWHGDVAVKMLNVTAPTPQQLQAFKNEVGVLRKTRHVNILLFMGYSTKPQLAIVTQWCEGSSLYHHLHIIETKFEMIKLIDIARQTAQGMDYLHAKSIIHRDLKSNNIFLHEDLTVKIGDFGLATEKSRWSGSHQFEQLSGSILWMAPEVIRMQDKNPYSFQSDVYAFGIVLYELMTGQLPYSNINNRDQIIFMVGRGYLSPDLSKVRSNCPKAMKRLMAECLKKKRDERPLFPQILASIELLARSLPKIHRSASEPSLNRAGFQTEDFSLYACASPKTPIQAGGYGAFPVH
Tyrosine-protein kinase ABL1 (Homo sapiens), P00519 [F317L], sequence (P00519 whole entry F317L): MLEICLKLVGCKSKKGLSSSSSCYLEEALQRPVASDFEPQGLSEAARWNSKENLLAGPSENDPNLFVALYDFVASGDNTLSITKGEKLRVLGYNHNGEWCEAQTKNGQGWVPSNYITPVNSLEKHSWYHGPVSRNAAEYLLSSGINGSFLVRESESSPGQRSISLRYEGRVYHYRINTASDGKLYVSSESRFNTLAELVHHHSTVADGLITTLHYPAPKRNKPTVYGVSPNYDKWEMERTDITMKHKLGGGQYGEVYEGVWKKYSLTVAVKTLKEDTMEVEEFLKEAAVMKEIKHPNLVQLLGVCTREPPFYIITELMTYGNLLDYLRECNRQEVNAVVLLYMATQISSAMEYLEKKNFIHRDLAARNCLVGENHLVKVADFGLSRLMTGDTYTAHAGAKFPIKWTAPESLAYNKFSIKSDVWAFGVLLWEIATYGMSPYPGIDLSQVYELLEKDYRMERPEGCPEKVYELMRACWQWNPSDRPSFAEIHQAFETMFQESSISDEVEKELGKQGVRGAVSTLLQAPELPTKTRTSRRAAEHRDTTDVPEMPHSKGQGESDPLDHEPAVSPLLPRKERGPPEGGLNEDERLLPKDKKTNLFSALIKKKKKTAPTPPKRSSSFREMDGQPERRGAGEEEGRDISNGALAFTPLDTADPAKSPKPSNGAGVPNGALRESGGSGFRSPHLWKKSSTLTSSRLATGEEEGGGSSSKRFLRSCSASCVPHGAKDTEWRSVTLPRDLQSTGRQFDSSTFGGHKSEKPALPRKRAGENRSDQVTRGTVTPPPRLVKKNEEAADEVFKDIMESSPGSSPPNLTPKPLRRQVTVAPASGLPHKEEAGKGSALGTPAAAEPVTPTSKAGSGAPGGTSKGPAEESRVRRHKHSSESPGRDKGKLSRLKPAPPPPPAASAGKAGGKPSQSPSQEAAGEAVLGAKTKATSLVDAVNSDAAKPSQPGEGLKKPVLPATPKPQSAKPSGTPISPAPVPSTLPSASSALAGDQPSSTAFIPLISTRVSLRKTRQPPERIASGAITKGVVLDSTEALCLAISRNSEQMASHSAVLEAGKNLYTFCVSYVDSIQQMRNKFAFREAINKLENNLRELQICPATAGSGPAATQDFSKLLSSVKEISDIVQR
Mast/stem cell growth factor receptor Kit (Homo sapiens), P10721 [D816H], sequence (P10721 whole entry D816H): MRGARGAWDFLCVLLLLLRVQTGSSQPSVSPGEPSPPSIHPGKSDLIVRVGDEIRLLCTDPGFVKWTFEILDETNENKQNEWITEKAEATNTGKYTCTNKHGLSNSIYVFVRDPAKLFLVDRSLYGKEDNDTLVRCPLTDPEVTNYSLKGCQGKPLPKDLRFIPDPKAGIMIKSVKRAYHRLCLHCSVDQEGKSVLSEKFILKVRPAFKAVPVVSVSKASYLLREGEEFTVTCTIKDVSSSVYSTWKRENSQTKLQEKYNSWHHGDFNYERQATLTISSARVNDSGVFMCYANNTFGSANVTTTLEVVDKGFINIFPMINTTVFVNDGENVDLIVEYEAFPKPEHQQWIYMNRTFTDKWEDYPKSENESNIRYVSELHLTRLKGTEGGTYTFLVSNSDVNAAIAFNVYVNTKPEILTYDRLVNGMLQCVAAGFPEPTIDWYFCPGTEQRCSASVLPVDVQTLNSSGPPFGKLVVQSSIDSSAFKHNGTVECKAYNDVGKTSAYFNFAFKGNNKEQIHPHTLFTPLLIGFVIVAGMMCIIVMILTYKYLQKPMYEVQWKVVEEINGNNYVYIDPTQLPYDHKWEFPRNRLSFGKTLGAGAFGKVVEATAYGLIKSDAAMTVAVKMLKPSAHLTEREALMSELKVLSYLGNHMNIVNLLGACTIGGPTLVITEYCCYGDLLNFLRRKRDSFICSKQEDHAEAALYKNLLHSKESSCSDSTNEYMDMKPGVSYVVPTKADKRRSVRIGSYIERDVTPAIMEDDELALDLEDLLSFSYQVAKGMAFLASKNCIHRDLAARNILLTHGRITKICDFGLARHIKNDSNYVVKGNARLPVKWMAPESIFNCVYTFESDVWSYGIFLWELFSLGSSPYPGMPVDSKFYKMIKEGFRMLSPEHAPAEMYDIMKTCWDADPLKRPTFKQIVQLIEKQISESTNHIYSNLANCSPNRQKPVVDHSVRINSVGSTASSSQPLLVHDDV
Epithelial discoidin domain-containing receptor 1 (Homo sapiens), sequence (Q08345 whole entry, the tested form may be a part): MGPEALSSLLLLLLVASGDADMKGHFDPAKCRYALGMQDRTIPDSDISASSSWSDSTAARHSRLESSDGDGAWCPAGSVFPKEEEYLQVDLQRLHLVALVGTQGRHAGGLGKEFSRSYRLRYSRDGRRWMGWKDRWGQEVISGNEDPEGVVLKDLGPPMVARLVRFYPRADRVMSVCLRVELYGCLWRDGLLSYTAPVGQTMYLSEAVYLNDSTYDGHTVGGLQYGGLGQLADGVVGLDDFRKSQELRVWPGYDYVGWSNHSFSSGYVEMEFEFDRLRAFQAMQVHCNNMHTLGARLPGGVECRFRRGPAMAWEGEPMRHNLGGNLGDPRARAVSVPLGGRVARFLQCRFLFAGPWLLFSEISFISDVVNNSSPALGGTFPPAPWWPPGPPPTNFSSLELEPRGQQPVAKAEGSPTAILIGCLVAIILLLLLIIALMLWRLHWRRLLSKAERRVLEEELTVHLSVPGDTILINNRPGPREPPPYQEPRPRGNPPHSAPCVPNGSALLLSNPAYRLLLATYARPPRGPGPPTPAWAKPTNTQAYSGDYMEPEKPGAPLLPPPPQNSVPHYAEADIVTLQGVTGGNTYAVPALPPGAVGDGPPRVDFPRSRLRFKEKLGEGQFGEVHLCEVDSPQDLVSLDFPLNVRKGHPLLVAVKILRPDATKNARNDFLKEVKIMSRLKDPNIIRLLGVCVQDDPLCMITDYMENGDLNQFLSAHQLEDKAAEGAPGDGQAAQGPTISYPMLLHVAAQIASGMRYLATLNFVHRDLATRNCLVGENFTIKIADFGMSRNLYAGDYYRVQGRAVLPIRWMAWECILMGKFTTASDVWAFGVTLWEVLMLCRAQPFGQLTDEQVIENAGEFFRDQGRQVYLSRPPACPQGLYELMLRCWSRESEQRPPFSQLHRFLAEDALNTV
Casein kinase I isoform epsilon (Homo sapiens), sequence (P49674 whole entry, looked up, canonical isoform): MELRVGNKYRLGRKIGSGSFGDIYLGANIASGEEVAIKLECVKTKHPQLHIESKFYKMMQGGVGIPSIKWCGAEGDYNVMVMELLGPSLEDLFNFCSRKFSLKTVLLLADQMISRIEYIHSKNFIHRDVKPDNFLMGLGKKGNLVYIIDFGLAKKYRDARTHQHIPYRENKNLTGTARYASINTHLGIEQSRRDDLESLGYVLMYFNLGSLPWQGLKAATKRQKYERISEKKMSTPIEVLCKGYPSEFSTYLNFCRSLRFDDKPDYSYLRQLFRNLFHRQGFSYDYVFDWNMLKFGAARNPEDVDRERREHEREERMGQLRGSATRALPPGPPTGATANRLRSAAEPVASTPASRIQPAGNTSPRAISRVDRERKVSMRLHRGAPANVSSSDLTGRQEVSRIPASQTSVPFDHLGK
Casein kinase I isoform gamma-2 (Homo sapiens), sequence (P78368 whole entry, looked up, the tested form may be a part, canonical isoform): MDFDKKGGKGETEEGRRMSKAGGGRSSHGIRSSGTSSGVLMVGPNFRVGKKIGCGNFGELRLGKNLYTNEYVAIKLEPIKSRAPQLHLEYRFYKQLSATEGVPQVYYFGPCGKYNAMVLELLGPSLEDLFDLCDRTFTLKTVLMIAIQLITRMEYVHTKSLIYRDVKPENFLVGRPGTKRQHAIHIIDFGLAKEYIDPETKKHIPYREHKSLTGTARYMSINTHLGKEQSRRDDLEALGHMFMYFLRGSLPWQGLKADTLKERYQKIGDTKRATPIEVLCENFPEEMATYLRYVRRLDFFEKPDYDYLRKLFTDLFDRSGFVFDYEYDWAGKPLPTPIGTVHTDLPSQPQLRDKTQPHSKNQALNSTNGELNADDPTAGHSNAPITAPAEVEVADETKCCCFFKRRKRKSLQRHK

| Compound | LC50 (SK-MEL-28) | LC50 (UACC-257) | LC50 (UACC-62 [1]) | LC50 (IGROV-1) | LC50 (OVCAR-8) | LC50 (ACHN [2]) | LC50 (UO-31) | TGI (K562) | LC50 (PC-3) | LC50 (DU-145) | LC50 (MDA-MB-231) | Activity [3] | Activity [4] | Activity [5] | Activity [6] | Activity [7] | TGI (NCI-H522) | TGI (HCT-116) | TGI (SNB-19 [8]) | TGI (U-251 [9]) | other results |
| --- | --- | --- | --- | --- | --- | --- | --- | --- | --- | --- | --- | --- | --- | --- | --- | --- | --- | --- | --- | --- | --- |
| CCc1cnc(N2CCN(C(=O)c3ccc(CNc4ncnc5ccccc45)cc3)CC2)nc1 | > 100 µM | > 100 µM | > 100 µM | > 100 µM | > 100 µM | > 100 µM | > 100 µM | > 100 µM | > 100 µM | > 100 µM | > 100 µM | 6.8% | 13% | 29% | 18% | > 50% | 55.4 µM | 25 µM | > 100 µM | > 100 µM | TGI (SK-MEL-2): > 100 µM; TGI (UACC-62 [10]): 80.9 µM; TGI (OVCAR-3): > 100 µM; TGI (786-0): 54.8 µM; TGI (A498): > 100 µM; Activity [11]: > 50%; Activity [12]: > 50%; TGI (ACHN [13]): 82.5 µM; TGI (RXF 393): 41.6 µM; TGI (SN12C): 59 µM; LC50 (RPMI-8226): > 100 µM; LC50 (A549): > 100 µM; LC50 (EKVX): > 100 µM; Activity [14]: 87%; LC50 (HCT-15): > 100 µM; LC50 (SNB-19 [15]): > 100 µM; LC50 (U-251 [16]): > 100 µM |
| c1ccc(Cc2cnc(N3CCN(c4ncnc5ccccc45)CC3)nc2)cc1 | > 100 µM | 41.4 µM | 63.1 µM | > 100 µM | 71.3 µM | > 100 µM | > 100 µM | > 100 µM | > 100 µM | 79.8 µM | 92.8 µM | > 50% | > 50% | 45% | > 50% | 47% | 40.3 µM | 13.2 µM | > 100 µM | 24.6 µM | TGI (SK-MEL-2): 35.8 µM; TGI (UACC-62 [10]): 25.9 µM; TGI (OVCAR-3): 23.2 µM; TGI (786-0): 36.7 µM; TGI (A498): 24.2 µM; Activity [11]: 30%; Activity [12]: 3.5%; TGI (ACHN [13]): 42.4 µM; TGI (RXF 393): 57.9 µM; TGI (SN12C): 24.4 µM; LC50 (RPMI-8226): 97.3 µM; LC50 (A549): > 100 µM; LC50 (EKVX): > 100 µM; Activity [14]: 90%; LC50 (HCT-15): > 100 µM; LC50 (SNB-19 [15]): > 100 µM; LC50 (U-251 [16]): 54.1 µM |
| O=C(c1cccc(Nc2ncnc3ccccc23)c1)N1CCN(c2ncc(Cc3ccccc3)cn2)CC1 | 5.25 µM | 5.37 µM | 5.37 µM | 5.01 µM | > 100 µM | > 100 µM | 4.37 µM | 2.23 µM | > 100 µM | > 100 µM | > 100 µM | > 50% | > 50% | 23% | 43% | 28% | 2.09 µM | 3.55 µM | 8.91 µM | 6.61 µM | TGI (SK-MEL-2): 2.69 µM; TGI (UACC-62 [10]): 1.86 µM; TGI (OVCAR-3): 8.13 µM; TGI (786-0): 6.61 µM; TGI (A498): 5.37 µM; Activity [11]: > 50%; Activity [12]: 19%; TGI (ACHN [13]): 4.57 µM; TGI (RXF 393): 11.5 µM; TGI (SN12C): 7.08 µM; LC50 (RPMI-8226): 3.89 µM; LC50 (A549): 8.13 µM; LC50 (EKVX): > 100 µM; Activity [14]: 74%; LC50 (HCT-15): 9.33 µM; LC50 (SNB-19 [15]): > 100 µM; LC50 (U-251 [16]): > 100 µM |
